The record followed here is US9179674B2, “Macrocyclic picolinamide compounds with fungicidal activity” (DOW AGROSCIENCES LLC, priority 2013, dated 2015).

Each structure is given as a SMILES string.

What all share (format): in vivo
For one test, the system named is Uncinula necator. Put plainly: Grape Powdery Mildew fungicidal activity (UNCINE). Conditions: Erysiphe necator, 24 h, 1 Day Protectant, read-out: Disease Control UNCINE 1DP. As to the method:
Technical grades of materials were dissolved in acetone, which were then mixed with nine volumes of water containing 110 ppm Triton X-100. The fungicide solutions were applied onto wheat seedlings using an automated booth sprayer to run-off. All sprayed plants were allowed to air dry prior to further handling. All fungicides were evaluated using the aforementioned method for their activity vs. all target diseases. Wheat leaf blotch and brown rust activity were also evaluated using track spray applications, in which case the fungicides were formulated as EC formulations, containing 0.1% Trycol 5941 in the spray solutions. Wheat plants (variety Yuma) were grown from seed in a greenhouse in 50% mineral soil/50% soil-less Metro mix until the first leaf was fully emerged, with 7-10 seedlings per pot. These plants were inoculated with an aqueous spore suspension of Septoria tritici either prior to or after fungicide treatments. After inoculation the plants were kept in 100% relative humidity (one day in a dark dew chamber followed by two to three days in a lighted dew chamber at 20° C.) to permit spores to germinate and infect the leaf. The plants were then transferred to a greenhouse set at 20° C. for disease to develop. When disease symptoms were fully expressed on the 1st leaves of untreated plants, infection levels were assessed on a scale of 0 to 100 percent disease severity. Percent disease control was calculated using the ratio of disease severity on treated plants relative to untreated plants. Evaluation of Fungicidal Activity: Grape Powdery Mildew (Uncinula necator; Bayer code […]) Grape seedlings (variety Carignane) were grown in soil-less Metro mix, with one plant per pot, and used in the test when approximately one month old. Plants were inoculated 24 hr after fungicide treatment by shaking spores from infected leaves over test plants. Plants were maintained in a greenhouse set at 20° C. until disease was fully developed. Fungicide formulation, application and disease assessment on the sprayed leaves followed the procedures as described in the Example A.

A further test relates to Rhyncosporium secalis. As to the kind of experiment: Barley Scald fungicidal activity (RHYNSE). Conditions: Hordeum vulgare, 24 h, 1 Day Protectant, read-out: Disease Control RHYNSE 1DP. As to the method:
Technical grades of materials were dissolved in acetone, which were then mixed with nine volumes of water containing 110 ppm Triton X-100. The fungicide solutions were applied onto wheat seedlings using an automated booth sprayer to run-off. All sprayed plants were allowed to air dry prior to further handling. All fungicides were evaluated using the aforementioned method for their activity vs. all target diseases. Wheat leaf blotch and brown rust activity were also evaluated using track spray applications, in which case the fungicides were formulated as EC formulations, containing 0.1% Trycol 5941 in the spray solutions. Wheat plants (variety Yuma) were grown from seed in a greenhouse in 50% mineral soil/50% soil-less Metro mix until the first leaf was fully emerged, with 7-10 seedlings per pot. These plants were inoculated with an aqueous spore suspension of Septoria tritici either prior to or after fungicide treatments. After inoculation the plants were kept in 100% relative humidity (one day in a dark dew chamber followed by two to three days in a lighted dew chamber at 20° C.) to permit spores to germinate and infect the leaf. The plants were then transferred to a greenhouse set at 20° C. for disease to develop. When disease symptoms were fully expressed on the 1st leaves of untreated plants, infection levels were assessed on a scale of 0 to 100 percent disease severity. Percent disease control was calculated using the ratio of disease severity on treated plants relative to untreated plants. Evaluation of Fungicidal Activity: Barley Scald (Rhyncosporium secalis; Bayer Code […]) Barley seedlings (variety Harrington) were propagated in soil-less Metro mix, with each pot having 8 to 12 plants, and used in the test when first leaf was fully emerged. Test plants were inoculated by an aqueous spore suspension of Rhyncosporium secalis 24 hr after fungicide treatments. After inoculation the plants were kept in a dew room at 20° C. with 100% relative humidity for 48 hr. The plants were then transferred to a greenhouse set at 20° C. for disease to develop. Fungicide formulation, application and disease assessment on the sprayed leaves followed the procedures as described in the Example A.

The next test concerns Venturia inaequalis. Put plainly: Apple Scab fungicidal activity (VENTIN). Conditions: 100 ppm, 1 Day Protectant. As to the method: Technical grades of materials were dissolved in acetone, which were then mixed with nine volumes of water containing 110 ppm Triton X-100. The fungicide solutions were applied onto wheat seedlings using an automated booth sprayer to run-off. All sprayed plants were allowed to air dry prior to further handling. All fungicides were evaluated using the aforementioned method for their activity vs. all target diseases. Wheat leaf blotch and brown rust activity were also evaluated using track spray applications, in which case the fungicides were formulated as EC formulations, containing 0.1% Trycol 5941 in the spray solutions. Wheat plants (variety Yuma) were grown from seed in a greenhouse in 50% mineral soil/50% soil-less Metro mix until the first leaf was fully emerged, with 7-10 seedlings per pot. These plants were inoculated with an aqueous spore suspension of Septoria tritici either prior to or after fungicide treatments. After inoculation the plants were kept in 100% relative humidity (one day in a dark dew chamber followed by two to three days in a lighted dew chamber at 20° C.) to permit spores to germinate and infect the leaf. The plants were then transferred to a greenhouse set at 20° C. for disease to develop. When disease symptoms were fully expressed on the 1st leaves of untreated plants, infection levels were assessed on a scale of 0 to 100 percent disease severity. Percent disease control was calculated using the ratio of disease severity on treated plants relative to untreated plants. Evaluation of Fungicidal Activity: Apple Scab (Venturia inaequalis; Bayer code […]) Apple seedlings (variety McIntosh) were grown in soil-less Metro mix, with one plant per pot. Seedlings with two expanding young leaves at the top (older leaves at bottom of the plants were trimmed) were used in the test. Plants were inoculated with a spore suspension of Venturia inaequalis 24 hr after fungicide treatment and kept in a 22° C. dew chamber with 100% RH for 48 hr, and then moved to a greenhouse set at 20° C. for disease to develop. Fungicide formulation, application and disease assessment on the sprayed leaves followed the procedures as described in the Example A.

With `COc1ccnc(C(=O)N[C@H]2COC[C@H](Cc3ccc(F)cc3)[C@@H](OCC(C)C)[C@H](C)OC2=O)c1OC(C)=O` [Compound F60], the pest or weed control at 100 ppm with Uncinula necator fell in the range of 80 to 100%.
In the case of `COc1ccnc(C(=O)N[C@H]2COC[C@H](Cc3ccc(Cl)cc3Cl)[C@@H](OC(=O)C(C)C)[C@H](C)OC2=O)c1OC(C)=O` [Compound F73], the pest or weed control at 100 ppm in the test on Rhyncosporium secalis lay in the range of 80 to 100%.
Take `COc1ccnc(C(=O)N[C@H]2COC[C@H](Cc3ccc(C)cc3)[C@@H](OCC(C)C)[C@H](C)OC2=O)c1OC(C)=O` [Compound F80]: in the test on Venturia inaequalis, the “Disease Control VENTIN 1DP” value is given as “B (More than 0-Less than 80)”. Also, the pest or weed control at 100 ppm in the test on Uncinula necator lay within 0 to 80%.
On to `COc1ccnc(C(=O)N[C@H]2COC[C@H](CCc3ccccc3)[C@@H](OCC(C)C)[C@H](C)OC2=O)c1OCOC(C)=O` [Compound F82], for which the pest or weed control at 100 ppm with Rhyncosporium secalis lay within 80 to 100%.
Take `COc1ccnc(C(=O)N[C@H]2COC[C@H](Cc3cccc4ccccc34)[C@@H](OC(=O)C(C)C)[C@H](C)OC2=O)c1OCOC(C)=O` [Compound F83, (3S,6S,7R,8S)-3-(3-(acetoxymethoxy)-4-methoxypicolin-amido)-6-methyl-8-(naphthalen-1-ylmethyl)-4-oxo-1,5-dioxonan-7-yl isobutyrate]: in the test on Venturia inaequalis, the “Disease Control VENTIN 1DP” value is on record as “A (80-100)”. Besides, the pest or weed control at 100 ppm was in the range of 0 to 80% in the test on Uncinula necator and 80 to 100% with Rhyncosporium secalis.
Consider `COc1ccnc(C(=O)N[C@H]2COC[C@H](Cc3ccc(F)cc3)[C@@H](OCC(C)C)[C@H](C)OC2=O)c1OCOC(C)=O` [Compound F96], for which the pest or weed control at 100 ppm in the test with Uncinula necator lay in the range of 80 to 100%.
As to `COc1ccnc(C(=O)N[C@H]2COC[C@H](CC(F)(F)F)[C@@H](OC3CCCC3)[C@H](C)OC2=O)c1OCOC(C)=O` [Compound F105], the pest or weed control at 100 ppm in the test with Rhyncosporium secalis is 80 to 100%.
Turning to `COc1ccnc(C(=O)N[C@H]2COC[C@H](CCC(C)C)[C@@H](OCCCC(F)(F)F)[C@H](C)OC2=O)c1OCOC(C)=O` [Compound F107], the figures for the pest or weed control at 100 ppm with Uncinula necator and in the test with Rhyncosporium secalis were 0 to 80% and 80 to 100%, respectively.
Taken in the same sequence, the figures for `COc1ccnc(C(=O)N[C@H]2COC[C@H](CCC(C)C)[C@@H](OC(=O)C3CC3)[C@H](C)OC2=O)c1OCOC(C)=O` [Compound F108] were 80 to 100% and 80 to 100%.
Take `COc1ccnc(C(=O)N[C@H]2COC[C@H](Cc3ccc(Cl)cc3Cl)[C@@H](OC(=O)C(C)C)[C@H](C)OC2=O)c1OCOC(C)=O` [Compound F110]: in the test on Rhyncosporium secalis, the pest or weed control at 100 ppm lay in the range of 80 to 100%.
For the compound `COc1ccnc(C(=O)N[C@H]2COC[C@H](CC3CCCC3)[C@@H](OC(=O)C(C)C)[C@H](C)OC2=O)c1OCOC(C)=O` [Compound F114], the “Disease Control VENTIN 1DP” value with Venturia inaequalis was “A (80-100)”. The pest or weed control at 100 ppm in the test with Uncinula necator and in the test with Rhyncosporium secalis was 80 to 100% in each case.
In the case of `COc1ccnc(C(=O)N[C@H]2COC[C@H](Cc3ccc(C)cc3)[C@@H](OCC(C)C)[C@H](C)OC2=O)c1OCOC(C)=O` [Compound F117], the “Disease Control VENTIN 1DP” value in the test with Venturia inaequalis is on record as “A (80-100)”. For the same compound, the pest or weed control at 100 ppm in the test on Uncinula necator lay within 80 to 100%.
In the case of `CCCCCO[C@@H]1[C@@H](Cc2ccc(Cl)cc2Cl)COC[C@H](NC(=O)c2nccc(OC)c2OCOC(=O)COCC)C(=O)O[C@H]1C` [Compound F122], the “Disease Control VENTIN 1DP” value with Venturia inaequalis was “A (80-100)”. The pest or weed control at 100 ppm in the test with Uncinula necator and in the test on Rhyncosporium secalis was 80 to 100% each time.
In the case of `CCCCCO[C@@H]1[C@@H](Cc2ccc(Cl)cc2Cl)COC[C@H](NC(=O)c2nccc(OC)c2OC(=O)CCOC)C(=O)O[C@H]1C` [Compound F123], the “Disease Control VENTIN 1DP” value in the test with Venturia inaequalis is “B (More than 0-Less than 80)”. Further, the pest or weed control at 100 ppm in the test on Uncinula necator and in the test with Rhyncosporium secalis was 80 to 100% in each case.
